Measured values as given in patent EP0554004A2, “Cephem compounds and antibacterial agents” (KATAYAMA SEIYAKUSYO CO. Ltd., priority 1992, dated 1993).
≈ marks a conversion by molar mass, not a printed value.

Tests used:
Assay in all cases: MIC against standard strains (Test Example 1)
Assay type in all cases: cell-based
[1] = test system: Staphylococcus aureus 195; details: Staphylococcus aureus 195 (MRSA); Muller-Hinton agar, 37°C overnight
Summary of the method: (§1)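 Read-out is visible growth inhibition on agent-containing Mueller-Hinton agar, overnight at 37°C; the MIC is the lowest inhibitory concentration. Inoculum: 1 x 10^6 CFU/ml.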

[2] = test system: Escherichia coli CSH2 (RK1)
Summary of the method: as §1

[3] = test system: Klebsiella pneumoniae IFO 3317; details: IFO3317, Muller-Hinton agar, 37°C overnight
Summary of the method: as §1

[4] = test system: Psuedomonas aeruginosa IFO 3445; details: Muller-Hinton agar, 37°C overnight
Summary of the method: as §1

[5] = test system: Staphylococcus aureus 167; details: Staphylococcus aureus 167 (MRSA); Muller-Hinton agar, 37°C overnight
Summary of the method: as §1

[6] = test system: Staphylococcus epidermidis IAM 1296; details: IAM1296, Muller-Hinton agar, 37°C overnight
Summary of the method: as §1

[7] = test system: Morganella morganii IFO 3848; details: IFO3848, Muller-Hinton agar, 37°C overnight
Summary of the method: as §1

[8] = test system: Serratia marcescens IAM 1184; details: IAM1184, Muller-Hinton agar, 37°C overnight
Summary of the method: as §1

[9] = test system: Micrococcus luteus ATCC 9341; details: ATCC9341, Muller-Hinton agar, 37°C overnight
Summary of the method: as §1

[10] = test system: Citrobacter freundii ATCC 8090; details: ATCC8090, Muller-Hinton agar, 37°C overnight
Summary of the method: as §1

[11] = test system: Escherichia coli NIHJ JC-2; details: NIHJJC2, Muller-Hinton agar, 37°C overnight
Summary of the method: as §1

[12] = test system: Staphylococcus aureus Smith; details: Muller-Hinton agar, 37°C overnight
Summary of the method: as §1

[13] = test system: Bacillus subtilis ATCC 6633; details: ATCC6633, Muller-Hinton agar, 37°C overnight
Summary of the method: as §1

[14] = test system: Klebsiella pneumoniae No. 42; details: Muller-Hinton agar, 37°C overnight
Summary of the method: as §1

CO[C@@]1(NC(=O)CSC(F)F)C(=O)N2C(C(=O)O)=C(CSc3nnnn3CCO)CO[C@@H]21 [FMOX, flomoxef, reference compound]
MIC [1]: 6.25 µg/mL (≈ 12.6 µM) | MIC [2]: 0.05 µg/mL (≈ 0.101 µM) | MIC [3]: 0.05 µg/mL (≈ 0.101 µM) | MIC [4]: > 100 µg/mL | MIC [5]: 100 µg/mL (≈ 201 µM) | MIC [6]: 0.2 µg/mL (≈ 0.403 µM) | MIC [7]: 0.39 µg/mL (≈ 0.786 µM) | MIC [8]: 0.2 µg/mL (≈ 0.403 µM) | MIC [9]: 0.2 µg/mL (≈ 0.403 µM) | MIC [10]: 0.39 µg/mL (≈ 0.786 µM) | MIC [11]: 0.05 µg/mL (≈ 0.101 µM) | MIC [12]: 0.39 µg/mL (≈ 0.786 µM) | MIC [13]: 0.2 µg/mL (≈ 0.403 µM) | MIC [14]: 0.1 µg/mL (≈ 0.201 µM)
